Structures can show the parent of a compound that is named as a salt. Where two headings read alike, the source gives them in different places.
What was measured:
E. coli CSH(RE45) = test: microbe, parasite or virus in culture; format: cell-based; details: Escherichia coli, 16 h, read-out: Minimum Inhibitory Concentration (MIC), *E. coli CSH(RE45), lactamase-producing strain; 10^6 CFU/ml
Procedure, shortened: (§1)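 First, strains were cultured overnight in Mueller Hinton broth. Next, one loopful went onto drug-containing Mueller Hinton agar (10^6 CFU/ml). Finally, after 37° C. incubation for 16 hours, MIC was determined in μg/ml.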

E. coli CSH2 (RK1) = test: microbe, parasite or virus in culture; format: cell-based; details: Escherichia coli, 16 h, read-out: Minimum Inhibitory Concentration (MIC), *E. coli CSH2 (RK1), lactamase-producing strain; 10^6 CFU/ml
Procedure, shortened: as §1

A. calcoaceticus No. 4 = test: in vitro antibacterial activity, agar plate dilution method (MIC); format: cell-based, Acinetobacter calcoaceticus; details: Acinetobacter calcoaceticus, NO.4, 16 h, A. calcoaceticus No. 4; 10^6 CFU/ml; read-out: Minimum Inhibitory Concentration (MIC)
Procedure, shortened: as §1

Ps. aeruginosa AKR17 = test: as above; format: cell-based, Pseudomonas aeruginosa; details: Pseudomonas aeruginosa, 16 h; Ps. aeruginosa AKR17; 10^6 CFU/ml; read-out: Minimum Inhibitory Concentration (MIC)
Procedure, shortened: as §1

Ps. aeruginosa AK 109 = test: as above; format: cell-based, Pseudomonas aeruginosa; details: Pseudomonas aeruginosa, AK109, 16 h, Ps. aeruginosa AK 109; 10^6 CFU/ml; read-out: Minimum Inhibitory Concentration (MIC)
Procedure, shortened: as §1

Ps. aeruginosa IF03445 = test: as above; format: cell-based, Pseudomonas aeruginosa; details: Pseudomonas aeruginosa, 16 h; Ps. aeruginosa IF03445; 10^6 CFU/ml; read-out: Minimum Inhibitory Concentration (MIC)
Procedure, shortened: as §1

E. cloacae Nek 39 = test: as above; format: cell-based; details: Enterobacter cloacae, NEK39, 16 h; *E. cloacae Nek 39, lactamase-producing strain; 10^6 CFU/ml; read-out: Minimum Inhibitory Concentration (MIC)
Procedure, shortened: as §1

S. marcescens No. 16-2 = test: as above; format: cell-based; details: Serratia marcescens, NO.162, 16 h; *S. marcescens No. 16-2, lactamase-producing strain; 10^6 CFU/ml; read-out: Minimum Inhibitory Concentration (MIC)
Procedure, shortened: as §1

S. marcescens IAM 1184 = test: as above; format: cell-based; details: Serratia marcescens, IAM1184, 16 h, read-out: Minimum Inhibitory Concentration (MIC)
Procedure, shortened: as §1

P. vulgaris HX-19 = test: as above; format: cell-based; details: Proteus vulgaris, HX19, 16 h, P. vulgaris HX-19; 10^6 CFU/ml; read-out: Minimum Inhibitory Concentration (MIC)
Procedure, shortened: as §1

P. vulgaris No. 33 = test: as above; format: cell-based; details: Proteus vulgaris, NO.33, 16 h, read-out: Minimum Inhibitory Concentration (MIC), *P. vulgaris No. 33, lactamase-producing strain; 10^6 CFU/ml
Procedure, shortened: as §1

E. cloacae 963 = test: as above; format: cell-based; details: Enterobacter cloacae, 963, 16 h, read-out: Minimum Inhibitory Concentration (MIC), E. cloacae 963; 10^6 CFU/ml
Procedure, shortened: as §1

E. coli GN5482 = test: as above; format: cell-based; details: Escherichia coli, GN5482, 16 h, read-out: Minimum Inhibitory Concentration (MIC)
Procedure, shortened: as §1

S. aureus 209P NIHJ-JC1 = test: as above; format: cell-based; details: Staphylococcus aureus, 16 h
Procedure, shortened: as §1

K. pneumoniae No. 42 = test: as above; format: cell-based; details: Klebsiella pneumoniae, NO.42, 16 h, read-out: Minimum Inhibitory Concentration (MIC), *K. pneumoniae No. 42, lactamase-producing strain; 10^6 CFU/ml
Procedure, shortened: as §1

K. oxytoca GN10650 = test: as above; format: cell-based; details: Klebsiella oxytoca, 10^6 CFU/ml
Procedure, shortened: as §1

E. coli NIHJ JC2 = test: as above; format: cell-based; details: Escherichia coli, NIHJJC2, 16 h, read-out: Minimum Inhibitory Concentration (MIC), E. coli NIHJ JC2, 10^6 CFU/ml, 37° C.
Procedure, shortened: as §1

K. pneumoniae PCI-602 = test: as above; format: cell-based; details: Klebsiella pneumoniae, PCI602, 16 h, 10^6 CFU/ml
Procedure, shortened: as §1

M. morganii GN5407 = test: as above; format: cell-based; details: Morganella morganii, GN5407, 16 h, read-out: Minimum Inhibitory Concentration (MIC), *M. morganii GN5407, lactamase-producing strain; 10^6 CFU/ml
Procedure, shortened: as §1

Ps. cepacia 23 = test: as above; format: cell-based, Pseudomonas cepacia; details: Burkholderia cepacia, 23, 16 h, read-out: Minimum Inhibitory Concentration (MIC)
Procedure, shortened: as §1

SMILES | MIC (E. coli CSH(RE45)) [µg/mL] | MIC (E. coli CSH2 (RK1)) [µg/mL] | MIC (A. calcoaceticus No. 4) [µg/mL] | MIC (Ps. aeruginosa AKR17) [µg/mL] | MIC (Ps. aeruginosa AK 109) [µg/mL] | MIC (Ps. aeruginosa IF03445) [µg/mL] | MIC (E. cloacae Nek 39) [µg/mL] | MIC (S. marcescens No. 16-2) [µg/mL] | MIC (S. marcescens IAM 1184) [µg/mL] | MIC (P. vulgaris HX-19) [µg/mL] | MIC (P. vulgaris No. 33) [µg/mL] | MIC (E. cloacae 963) [µg/mL] | MIC (E. coli GN5482) [µg/mL] | MIC (K. pneumoniae No. 42) [µg/mL] | MIC (E. coli NIHJ JC2) [µg/mL] | MIC (M. morganii GN5407) [µg/mL] | MIC (Ps. cepacia 23) [µg/mL] | also measured
CO/N=C(\C(=O)N[C@@H]1C(=O)N2C(C(=O)O)=C(CSc3nc(-c4ccc(OC)c(OC)c4)cs3)CS[C@H]12)c1csc(N)n1 [compound 13, trifluoroacetate, reference compound] | 6.25 | 1.56 | 100 | > 100 | 100 | > 100 | 25 | 50 | 3.12 | 0.05 | 3.12 | 12.5 | 3.12 | 6.25 | 6.25 | 6.25 | 12.5 | MIC (S. aureus 209P NIHJ-JC1; read-out: Minimum Inhibitory Concentration (MIC)): 0.39 µg/mL; MIC (K. oxytoca GN10650; 16 h, *K. oxytoca GN10650, lactamase-producing strain, read-out: Minimum Inhibitory Concentration (MIC)): 25 µg/mL; MIC (K. pneumoniae PCI-602; K. pneumoniae PCI-602, read-out: Minimum Inhibitory Concentration (MIC)): 0.05 µg/mL
CC(C)(O/N=C(\C(=O)N[C@@H]1C(=O)N2C(C(=O)O)=C(CSc3ncc(-c4ccccc4)o3)CS[C@H]12)c1csc(N)n1)C(=O)O [compound 22, disodium 7β-[2-(2-aminothiazol-4-yl)-2-(1-carboxylate-1-methylethoxyimino)acetamido]-3(5-phenyloxazol-2-yl)thiomethyl-3-cephem-4-carboxylate, reference compound] | 3.12 | 3.12 | > 100 | > 100 | 50 | 50 | 25 | 25 | 3.12 | < 0.006 | 0.78 | 12.5 | 3.12 | 12.5 | 12.5 | 6.25 | 12.5 | MIC (S. aureus 209P NIHJ-JC1; read-out: Minimum Inhibitory Concentration (MIC), S. aureus 209P NIHJ-JC1, 10^6 CFU/ml, 37° C., 16 hours): 6.25 µg/mL; MIC (K. oxytoca GN10650; GN10650, 16 h, read-out: Minimum Inhibitory Concentration (MIC), *K. oxytoca GN10650, lactamase-producing strain): 6.25 µg/mL; MIC (K. pneumoniae PCI-602; read-out: Minimum Inhibitory Concentration (MIC), K. pneumoniae PCI-602): 0.1 µg/mL
